Data as given in US20250250230A1, “HETEROCYCLIC COMPOUND” (TAKEDA PHARMACEUTICAL COMPANY LIMITED, priority 2022, published 2025).

biological target: T1, human orexin type 2 receptor (Homo sapiens, UniProt O43614); assay: Measurement of orexin type 2 receptor agonist activity (calcium fluorescence, Fluo-4 AM, FDSS); type: cell-based; settings: test compound 3 μM; CHO cells expressing human OX2 receptor; DMSO = 0%, orexin A (human) = 100%
T1 construct: expressed in transfected cells
T1 sequence (O43614 1-444): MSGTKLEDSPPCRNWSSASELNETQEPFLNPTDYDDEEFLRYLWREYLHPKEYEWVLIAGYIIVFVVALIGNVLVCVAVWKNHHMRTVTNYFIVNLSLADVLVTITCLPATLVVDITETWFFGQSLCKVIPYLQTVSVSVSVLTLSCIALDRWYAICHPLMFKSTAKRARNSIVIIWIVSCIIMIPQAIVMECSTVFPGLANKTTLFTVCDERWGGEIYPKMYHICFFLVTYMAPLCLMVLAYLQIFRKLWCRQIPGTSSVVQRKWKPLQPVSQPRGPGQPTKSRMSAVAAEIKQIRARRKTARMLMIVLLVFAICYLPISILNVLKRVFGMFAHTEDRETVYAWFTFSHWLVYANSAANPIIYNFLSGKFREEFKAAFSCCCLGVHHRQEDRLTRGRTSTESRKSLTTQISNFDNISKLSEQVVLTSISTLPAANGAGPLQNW
In short: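 Agonist response scaled between vehicle (0%) and human orexin A at 10 nM final (100%), from 2-min kinetic Fluo-4 fluorescence reads. Stable hOX2R CHO-K1 clone, dye-loaded in HBSS/20 mM HEPES/0.1% BSA with 1.25 mM probenecid before compound addition.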

Compound	OX2R agonist activity (3 μM, %)
CCS(=O)(=O)NC[C@@H]1[C@H](F)CN1C(=O)C1CC1(F)c1ccc(F)cc1-c1ccccc1Cl (stereo partly drawn) [Example 440, N-({(2R,3R)-1-[(1R,2R)-2-(2′-chloro-5-fluoro[1,1′-biphenyl]-2-yl)-2-fluorocyclopropane-1-carbonyl]-3-fluoroazetidin-2-yl}methyl)ethanesulfonamide, or N-({(2R,3R)-1-[(1S,2S)-2-(2′-chloro-5-fluoro[1,1′-biphenyl]-2-yl)-2-fluorocyclopropane-1-carbonyl]-3-fluoroazetidin-2-yl}methyl)ethanesulfonamide]	91%
CCS(=O)(=O)NC[C@@H]1[C@H](F)CN1C(=O)C1CC1(F)c1ccccc1-c1ccccc1Cl (stereo partly drawn) [Example 441, N-({(2R,3R)-1-[(1R,2R)-2-(2′-chloro[1,1′-biphenyl]-2-yl)-2-fluorocyclopropane-1-carbonyl]-3-fluoroazetidin-2-yl}methyl)ethanesulfonamide, or N-({(2R,3R)-1-[(1S,2S)-2-(2′-chloro[1,1′-biphenyl]-2-yl)-2-fluorocyclopropane-1-carbonyl]-3-fluoroazetidin-2-yl}methyl)ethanesulfonamide]	90%
CCS(=O)(=O)NC[C@@H]1[C@H](F)CN1C(=O)C1CC1(F)c1ccccc1-c1ccccc1F (stereo partly drawn) [Example 442, N-({(2R,3R)-3-fluoro-1-[(1R,2R)-2-fluoro-2-(2′-fluoro[1,1′-biphenyl]-2-yl)cyclopropane-1-carbonyl]azetidin-2-yl}methyl)ethanesulfonamide, or N-({(2R,3R)-3-fluoro-1-[(1S,2S)-2-fluoro-2-(2′-fluoro[1,1′-biphenyl]-2-yl)cyclopropane-1-carbonyl]azetidin-2-yl}methyl)ethanesulfonamide]	100%
CNS(=O)(=O)NC[C@@H]1[C@H](F)CN1C(=O)[C@@H]1C[C@@]1(F)c1ccc(Cl)cc1-c1c(F)cccc1F [Example 443, N-({(2R,3R)-1-[(1S,2S)-2-(5-chloro-2′,6′-difluoro[1,1′-biphenyl]-2-yl)-2-fluorocyclopropane-1-carbonyl]-3-fluoroazetidin-2-yl}methyl)-N′-methylsulfuric diamide]	100%
O=C([C@@H]1C[C@@]1(F)c1ccc(F)cc1-c1c(F)cccc1F)N1C[C@@H](F)[C@H]1CNS(=O)(=O)C(F)(F)F [Example 449, 1,1,1-trifluoro-N-({(2R,3R)-3-fluoro-1-[(1S,2S)-2-fluoro-2-(2′,5,6′-trifluoro[1,1′-biphenyl]-2-yl)cyclopropane-1-carbonyl]azetidin-2-yl}methyl)methanesulfonamide]	94%
CS(=O)(=O)NCC1CCN(C(=O)[C@@H]2C[C@@]2(F)c2ccccc2-c2c(F)cccc2F)C1 (stereo partly drawn) [Example 450, N-({(3R)-1-[(1S,2S)-2-(2′,6′-difluoro[1,1′-biphenyl]-2-yl)-2-fluorocyclopropane-1-carbonyl]pyrrolidin-3-yl}methyl)methanesulfonamide, or N-({(3S)-1-[(1S,2S)-2-(2′,6′-difluoro[1,1′-biphenyl]-2-yl)-2-fluorocyclopropane-1-carbonyl]pyrrolidin-3-yl}methyl)methanesulfonamide]	96%
N-({(2S,3R)-1-[(1R,2R)-2-fluoro-2-(2′- fluoro[1,1′-biphenyl]-2- yl)cyclopropane-1-carbonyl]-3- methylazetidin-2- yl}methyl)ethanesulfonamide, or N- ({(2S,3R)-1-[(1S,2S)-2-fluoro-2-(2′- fluoro[1,1′-biphenyl]-2- yl)cyclopropane-1-carbonyl]-3- methylazetidin-2- yl}methyl)ethanesulfonamide [Example 439]	107%

Results, then the compound that gave them:

OX2R agonist activity (3 μM, %)	Compound
96%	CC(C)S(=O)(=O)NC[C@@H]1[C@H](F)CN1C(=O)[C@@H]1C[C@@]1(F)c1ccc(F)cc1-c1c(F)cccc1F [Example 444, N-({(2R,3R)-3-fluoro-1-[(1S,2S)-2-fluoro-2-(2′,5,6′-trifluoro[1,1′-biphenyl]-2-yl)cyclopropane-1-carbonyl]azetidin-2-yl}methyl)propane-2-sulfonamide]
76%	O=C([C@@H]1C[C@@]1(F)c1ccc(F)cc1-c1c(F)cccc1F)N1C[C@@H](F)[C@H]1CNS(=O)(=O)CC1CC1 [Example 445, 1-cyclopropyl-N-({(2R,3R)-3-fluoro-1-[(1S,2S)-2-fluoro-2-(2′,5,6′-trifluoro[1,1′-biphenyl]-2-yl)cyclopropane-1-carbonyl]azetidin-2-yl}methyl)methanesulfonamide]
100%	O=C([C@@H]1C[C@@]1(F)c1ccc(F)cc1-c1c(F)cccc1F)N1C[C@@H](F)[C@H]1CNS(=O)(=O)N1CCC1 [Example 446, N-({(2R,3R)-3-fluoro-1-[(1S,2S)-2-fluoro-2-(2′,5,6′-trifluoro[1,1′-biphenyl]-2-yl)cyclopropane-1-carbonyl]azetidin-2-yl}methyl)azetidine-1-sulfonamide]
90%	O=C([C@@H]1C[C@@]1(F)c1ccc(F)cc1-c1c(F)cccc1F)N1C[C@@H](F)[C@H]1CNS(=O)(=O)NC1CC1 [Example 447, N-cyclopropyl-N′-({(2R,3R)-3-fluoro-1-[(1S,2S)-2-fluoro-2-(2′,5,6′-trifluoro[1,1′-biphenyl]-2-yl)cyclopropane-1-carbonyl]azetidin-2-yl}methyl)sulfuric diamide]
98%	O=C([C@@H]1C[C@@]1(F)c1ccc(F)cc1-c1c(F)cccc1F)N1C[C@@H](F)[C@H]1CNS(=O)(=O)C(F)F [Example 448, 1,1-difluoro-N-({(2R,3R)-3-fluoro-1-[(1S,2S)-2-fluoro-2-(2′,5,6′-trifluoro[1,1′-biphenyl]-2-yl)cyclopropane-1-carbonyl]azetidin-2-yl}methyl)methanesulfonamide]
